Results: BindingDB's records for doi:10.1021/jm00010a019 (Boehringer Ingelheim Pharmaceuticals, 1995)

molecular target: T1, Renin (Homo sapiens, UniProt P00797); experiment: Component acylation rate constant by the compound against Renin was determined
T1 sequence (P00797 whole entry): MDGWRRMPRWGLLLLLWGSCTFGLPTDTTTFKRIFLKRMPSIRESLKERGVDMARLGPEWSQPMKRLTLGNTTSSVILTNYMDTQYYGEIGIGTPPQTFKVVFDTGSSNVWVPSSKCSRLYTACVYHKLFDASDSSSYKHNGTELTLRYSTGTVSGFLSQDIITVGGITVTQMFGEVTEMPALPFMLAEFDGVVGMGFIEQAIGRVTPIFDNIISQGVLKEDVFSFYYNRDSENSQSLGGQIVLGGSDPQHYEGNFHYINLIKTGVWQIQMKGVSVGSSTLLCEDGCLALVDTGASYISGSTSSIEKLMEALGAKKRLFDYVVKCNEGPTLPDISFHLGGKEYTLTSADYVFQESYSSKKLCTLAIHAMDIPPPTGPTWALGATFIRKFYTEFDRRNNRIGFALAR

koff	Structure (SMILES)
0.000569 s⁻¹	CC(C)C[C@H](O)[C@H](O)[C@H](CC1CCCCC1)NC(=O)[C@@H](CC(=O)N(CC(=O)N(C)CCc1ccccn1)CC1(C)CCCCC1)Cc1csc(N)n1 [(R)-2-(2-Amino-thiazol-4-ylmethyl)-N*1*-((1S,2R,3S)-1-cyclohexylmethyl-2,3-dihydroxy-5-methyl-hexyl)-N*4*-(1-methyl-cyclohexylmethyl)-N*4*-{[methyl-(2-pyridin-2-yl-ethyl)-carbamoyl]-methyl}-succinamide]
0.00175 s⁻¹	COC1(CN(CC(=O)N(C)CCc2ccccn2)C(=O)C[C@@H](Cc2csc(N)n2)C(=O)N[C@@H](CC2CCCCC2)[C@@H](O)[C@@H](O)CC(C)C)CCCCC1 [(R)-2-(2-Amino-thiazol-4-ylmethyl)-N*1*-((1S,2R,3S)-1-cyclohexylmethyl-2,3-dihydroxy-5-methyl-hexyl)-N*4*-(1-methoxy-cyclohexylmethyl)-N*4*-{[methyl-(2-pyridin-2-yl-ethyl)-carbamoyl]-methyl}-succinamide]
0.000234 s⁻¹	CC(C)C[C@H](O)[C@H](O)[C@H](CC1CCCCC1)NC(=O)[C@@H](CC(=O)N(CC(=O)N(C)CCc1ccccn1)CC1CCCCCC1)Cc1csc(N)n1 [(R)-2-(2-Amino-thiazol-4-ylmethyl)-N*4*-cycloheptylmethyl-N*1*-((1S,2R,3S)-1-cyclohexylmethyl-2,3-dihydroxy-5-methyl-hexyl)-N*4*-{[methyl-(2-pyridin-2-yl-ethyl)-carbamoyl]-methyl}-succinamide]
0.00028 s⁻¹	CC(C)C[C@H](O)[C@H](O)[C@H](CC1CCCCC1)NC(=O)[C@@H](CC(=O)N(CC(=O)N(C)CCc1ccccn1)CC1CCCCC1)Cc1csc(N)n1 [2-(2-Amino-thiazol-4-ylmethyl)-N*4*-cyclohexylmethyl-N*1*-(1-cyclohexylmethyl-2,3-dihydroxy-5-methyl-hexyl)-N*4*-{[methyl-(2-pyridin-2-yl-ethyl)-carbamoyl]-methyl}-succinamide(BILA 2157 BS)]

The remaining lines, values behind:

Structure (SMILES)	koff
CC(C)C[C@H](O)[C@H](O)[C@H](CC1CCCCC1)NC(=O)[C@@H](CC(=O)N(CC(=O)N(C)CCN1CCOCC1)[C@@H](C)c1ccccc1)Cc1csc(N)n1 [(R)-2-(2-Amino-thiazol-4-ylmethyl)-N*1*-((1S,2R,3S)-1-cyclohexylmethyl-2,3-dihydroxy-5-methyl-hexyl)-N*4*-{[methyl-(2-morpholin-4-yl-ethyl)-carbamoyl]-methyl}-N*4*-((S)-1-phenyl-ethyl)-succinamide]	0.00481 s⁻¹
CC(C)C[C@H](O)[C@H](O)[C@H](CC1CCCCC1)NC(=O)[C@@H](CC(=O)N(CC(=O)N(C)CCC(=O)N1CCOCC1)[C@@H](C)c1ccccc1)Cc1csc(N)n1 [(R)-2-(2-Amino-thiazol-4-ylmethyl)-N*1*-((1S,2R,3S)-1-cyclohexylmethyl-2,3-dihydroxy-5-methyl-hexyl)-N*4*-{[methyl-(3-morpholin-4-yl-3-oxo-propyl)-carbamoyl]-methyl}-N*4*-((S)-1-phenyl-ethyl)-succinamide]	0.0013 s⁻¹
CC(C)C[C@H](O)[C@H](O)[C@H](CC1CCCCC1)NC(=O)[C@@H](CC(=O)N(CC(=O)N(C)CCN(C)C(=O)N1CCOCC1)[C@@H](C)c1ccccc1)Cc1csc(N)n1 [(R)-2-(2-Amino-thiazol-4-ylmethyl)-N*1*-((1S,2R,3S)-1-cyclohexylmethyl-2,3-dihydroxy-5-methyl-hexyl)-N*4*-[(methyl-{2-[methyl-(morpholine-4-carbonyl)-amino]-ethyl}-carbamoyl)-methyl]-N*4*-((S)-1-phenyl-ethyl)-succinamide]	0.00133 s⁻¹
CC(C)C[C@H](O)[C@H](O)[C@H](CC1CCCCC1)NC(=O)[C@@H](CC(=O)N(CC(=O)N(C)CCc1ccccn1)[C@@H](C)c1ccccc1)Cc1csc(N)n1 [(R)-2-(2-Amino-thiazol-4-ylmethyl)-N*1*-((1S,2R,3S)-1-cyclohexylmethyl-2,3-dihydroxy-5-methyl-hexyl)-N*4*-{[methyl-(2-pyridin-2-yl-ethyl)-carbamoyl]-methyl}-N*4*-((S)-1-phenyl-ethyl)-succinamide]	0.00135 s⁻¹
